Experimental data taken from PMC7186840, “Chemical‐Shift Perturbations Reflect Bile Acid Binding to Norovirus Coat Protein: Recognition Comes in Different Flavors” (Chembiochem, 2019).

How the values were obtained:
GII.4 Saga P dimers [1] = target: T1, GII.4 Saga P dimers (Norovirus Hu/GII-4/Saga4/2006/JP, UniProt B5BTR7); assay: 1H, […] TROSY HSQC CSP titration; assay type: binding
T1 construct: isotope-labelled, non-deamidated

GII.4 Saga P dimers [2] = target: T1, GII.4 Saga P dimers; assay: 1H, […] TROSY HSQC CSP; assay type: binding; conditions: 2 mM ligand, pH 7.3, 298 K; same site as CA
GII.4 Saga VLPs [3] = target: T2, GII.4 Saga VLPs (Norovirus Hu/GII-4/Saga4/2006/JP, UniProt B5BTR7); assay: STD NMR; assay type: binding; conditions: pH 7.3, 277 K
T2 construct: virus-like particles of VP1, arginine tail present; donated by G. Hansman

GI.1 Norwalk VLPs = target: T3, GI.1 Norwalk VLPs (Norovirus GI, UniProt A0A1S5QJB8); assay: STD NMR titration, single saturation time […] s; assay type: binding; conditions: read-out: K D app; pH 7.3, 277 K, 10 % D2O; apparent, ligand aggregation
T3 construct: virus-like particles of VP1, arginine tail present; donated by G. Hansman

GII.4 Saga VLPs [4] = target: T2, GII.4 Saga VLPs; assay: STD NMR titration, single saturation time […] s; assay type: binding
GII.7 RKI VLPs = target: T4, GII.7 RKI VLPs (Norovirus Hu/GII.7/VLP 05G954/2005/DE, UniProt S5GGK6); assay: STD NMR titration, single saturation time […] s; assay type: binding
T4 construct: virus-like particles of VP1, arginine tail present; gift of S. Taube

GII.17 Saitama/T87 VLPs = target: T5, GII.17 Saitama/T87 VLPs (Norovirus GII/Hu/JP/2002/GII.P16_GII.17/Saitama/T87, UniProt A0A076JB57); assay: biochemical; parameters: STD NMR titration of norovirus VLPs with cholic acid, single saturation time 2 s; apparent KD from STD-AF
T5 construct: gene VP1; virus-like particles of VP1, arginine tail present; donated by G. Hansman
Protocol: Samples containing VLPs were prepared at 0.41 to 1 mg mL^−1 VP1 concentration (6.9 to 17.7 μM binding sites) in PBS pH 7.3, 100 μM [D6]DSS, 0.02 % NaN3 and 10 % D2O. […] Bile acid stock solution were prepared as described above for backbone chemical shift perturbation experiments. For N373D Saga P dimers, one sample containing 45 μM P dimers, 100 μM [D6]DSS in 20 mM fully deuterated sodium phosphate buffer (pH 7.45) was prepared and titrated with CA up to a final concentration of 12 mM. […] In one set of experiments we performed titrations at single saturation times of 2 s15 (cf. Figure S5 and Table S1). Another titration experiment made use of initial STD growth rates16 determined from STD build up curves (Figure S6 and Table S2). The initial growth rates were also used to derive a binding epitope for CA (Figures 2 and S3). The apparent K D values obtained are similar, with the value resulting from initial growth rates being slightly smaller, as expected.

GII.4 MI001 P dimers = target: T6, GII.4 MI001 P dimers (Norovirus Hu/GII.4/MI001/2011/USA, UniProt S5FWF8); assay: 1H, […] TROSY HSQC CSP titration; assay type: binding
T6 construct: [U-2H,15N]-labelled

GII.4 Saga VLPs [5] = target: T2, GII.4 Saga VLPs; assay: biochemical; parameters: STD NMR titration of norovirus VLPs with cholic acid; apparent KD from initial STD growth rates
Protocol: Samples containing VLPs were prepared at 0.41 to 1 mg mL^−1 VP1 concentration (6.9 to 17.7 μM binding sites) in PBS pH 7.3, 100 μM [D6]DSS, 0.02 % NaN3 and 10 % D2O. […] Bile acid stock solution were prepared as described above for backbone chemical shift perturbation experiments. For N373D Saga P dimers, one sample containing 45 μM P dimers, 100 μM [D6]DSS in 20 mM fully deuterated sodium phosphate buffer (pH 7.45) was prepared and titrated with CA up to a final concentration of 12 mM. with STD‐AFmax being the maximum STD‐AF for a given proton, k sat the saturation rate constant, and t sat the saturation time. Initial slopes STD‐AF0 were obtained from STD‐AF0=STD‐AFmax k sat, and were plotted as a function of the ligand concentration. Fitting Equation (1) to the resulting binding isotherms delivered dissociation constants K D. For curve fitting Origin2016G (OriginLab) was used. To compare P dimers to viral capsids, we also obtained STD NMR titration curves for CA binding to GII.4 Saga VLPs (Figure 3 D; Table 1, No. 5 and 6). In one set of experiments we performed titrations at single saturation times of 2 s15 (cf. Figure S5 and Table S1). Another titration experiment made use of initial STD growth rates16 determined from STD build up curves (Figure S6 and Table S2). The initial growth rates were also used to derive a binding epitope for CA (Figures 2 and S3). […]

GII.10 Vietnam026 VLPs = target: T7, GII.10 Vietnam026 VLPs (Norwalk virus, UniProt Q5F4T5); assay: STD NMR titration, single saturation time […] s; assay type: binding
T7 construct: virus-like particles of VP1, arginine tail present; donated by G. Hansman

[6] = target: T8, GII.17 Kawasaki308 P dimers (Norovirus Hu/GII/JP/2015/GII.P17_GII.17/Kawasaki308, UniProt A0A0E4B1P1); assay: methyl TROSY CSP titration; assay type: binding
T8 construct: gene VP1; MIL(ProS)V(ProS)A methyl-labelled
Description: methyl TROSY CSP titration on GII.17 Kawasaki308 P dimers

GII.4 Ast6139 VLPs = target: T9, GII.4 Ast6139 VLPs (Norwalk virus, UniProt Q70ET2); assay: STD NMR titration, single saturation time […] s; assay type: binding
T9 construct: virus-like particles of VP1, arginine tail present; donated by F. Parra

GII.17 Kawasaki308 VLPs = target: T10, GII.17 Kawasaki308 VLPs (Norovirus Hu/GII/JP/2015/GII.P17_GII.17/Kawasaki308, UniProt A0A0E4B1P1); assay: STD NMR titration, single saturation time […] s; assay type: binding
T10 construct: gene VP1; virus-like particles of VP1, arginine tail present; donated by G. Hansman

Q: Which Kd (GII.4 Saga P dimers [1]) does the source give for `CC1(C)[C@@H](O[C@H]2O[C@H](C(=O)O)[C@@H](O)[C@H](O)[C@H]2O[C@@H]2O[C@H](C(=O)O)[C@@H](O)[C@H](O)[C@H]2O)CC[C@]2(C)[C@H]3C(=O)C=C4[C@@H]5C[C@@](C)(C(=O)O)CC[C@]5(C)CC[C@@]4(C)[C@]3(C)CC[C@@H]12` [GR, glycyrrhizic acid] here?
A: 13.8 ± 0.4 mM

Q: With `C[C@H](CCC(=O)O)[C@H]1CC[C@H]2[C@@H]3[C@H](O)C[C@@H]4C[C@H](O)CC[C@]4(C)[C@H]3CC[C@]12C` [CDCA, chenodeoxycholic acid] as the compound, how does the “1H,15N TROSY HSQC CSP” value (GII.4 Saga P dimers [2]) read?
A: Binding of DCA, GCDCA, and CDCA yields very similar CSPs reflecting binding to the same site

Q: Which “1H,15N TROSY HSQC CSP” value (GII.4 Saga P dimers [2]) does the source give for `C[C@H](CCC(=O)O)[C@H]1CC[C@H]2[C@@H]3CC[C@@H]4C[C@H](O)CC[C@]4(C)[C@H]3C[C@H](O)[C@]12C` [DCA, deoxycholic acid] here?
A: Binding of DCA, GCDCA, and CDCA yields very similar CSPs reflecting binding to the same site

Q: With `C[C@H](CCC(=O)NCC(=O)O)[C@H]1CC[C@H]2[C@@H]3[C@H](O)C[C@@H]4C[C@H](O)CC[C@]4(C)[C@H]3C[C@H](O)[C@]12C` [GCA, sodium glycocholate hydrate] as the compound, how does the “STD NMR” value (GII.4 Saga VLPs [3]; 1 mM ligand in presence of TCDCA (1 mM)) read?
A: In each case STD NMR spectra indicate binding of bile acids to VLPs

Q: With `C[C@H](CCC(=O)NCC(=O)O)[C@H]1CC[C@H]2[C@@H]3[C@H](O)C[C@@H]4C[C@H](O)CC[C@]4(C)[C@H]3CC[C@]12C` [GCDCA, glycochenodeoxycholic acid] as the compound, how does the Kd (GII.4 Saga P dimers [1]) read?
A: 1.5 ± 0.3 mM

Q: For `C[C@H](CCC(=O)O)[C@H]1CC[C@H]2[C@@H]3[C@H](O)C[C@@H]4C[C@H](O)CC[C@]4(C)[C@H]3C[C@H](O)[C@]12C` [CA, cholic acid], which Kd (GI.1 Norwalk VLPs) is on record?
A: 12.2 ± 1.8 mM

Q: And the Kd (GII.4 Saga VLPs [4])?
A: 4.7 ± 0.4 mM

Q: And the Kd (GII.7 RKI VLPs)?
A: 10.9 ± 4.3 mM

Q: And the Kd (GII.17 Saitama/T87 VLPs)?
A: 6.6 ± 0.4 mM

Q: And the Kd (GII.4 MI001 P dimers)?
A: 11.1 ± 0.9 mM

Q: And the Kd (GII.4 Saga P dimers [1])?
A: 10 ± 0.6 mM

Q: What about the Kd (GII.4 Saga VLPs [5]) of the same compound?
A: 3.6 ± 0.7 mM

Q: What about the Kd (GII.10 Vietnam026 VLPs) of the same compound?
A: 12.9 ± 2.9 mM

Q: And the Kd [6]?
A: 20.1 ± 2.9 mM

Q: What about the Kd (GII.4 Ast6139 VLPs) of the same compound?
A: 26.5 ± 8 mM

Q: What about the Kd (GII.17 Kawasaki308 VLPs) of the same compound?
A: 31.5 ± 2.8 mM

Q: Which “STD NMR” value (GII.4 Saga VLPs [3]; 1 mM ligand in presence of GCA (1 mM)) does the source give for `C[C@H](CCC(=O)NCCS(=O)(=O)O)[C@H]1CC[C@H]2[C@@H]3[C@H](O)C[C@@H]4C[C@H](O)CC[C@]4(C)[C@H]3CC[C@]12C` [TCDCA, sodium taurochenodeoxycholate] here?
A: In each case STD NMR spectra indicate binding of bile acids to VLPs
